# Patent US20050037335A1, “Method for identifying novel transcriptional regulatory proteins” (priority 1999, published 2005)
# Experiments:
# tTA (Wildtype) = target: T1, tTA (Wildtype) (Escherichia coli, UniProt P04483); assay: Inducer-dependent repression of luciferase activity by tTA, transient transfection in HeLa cells; assay type: cell-based
# T1 construct: expressed in transfected cells; host or cells: HeLa cells, transient transfection
# tTA-45 (L170V) = target: T2, tTA-45 (L170V) (Escherichia coli, UniProt P04483, L170V); assay: Inducer-dependent repression of luciferase activity by tTA-45, transient transfection in HeLa cells; assay type: cell-based
# T2 construct: expressed in transfected cells; host or cells: HeLa cells, transient transfection
# T2 sequence (P04483 other isoform, or with tags, fused parts or gaps L170V): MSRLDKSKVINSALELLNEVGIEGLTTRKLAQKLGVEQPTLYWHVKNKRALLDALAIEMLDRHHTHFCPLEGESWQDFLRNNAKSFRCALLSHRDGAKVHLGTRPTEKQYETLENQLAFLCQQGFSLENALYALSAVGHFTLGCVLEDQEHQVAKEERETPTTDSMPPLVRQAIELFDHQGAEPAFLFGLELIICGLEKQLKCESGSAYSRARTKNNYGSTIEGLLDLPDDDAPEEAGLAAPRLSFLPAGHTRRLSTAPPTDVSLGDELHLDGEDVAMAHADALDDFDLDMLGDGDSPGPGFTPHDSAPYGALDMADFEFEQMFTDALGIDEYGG
# Protocol: One mutant that was isolated from this screen, tTA-45, was sequenced and found to carry an amino acid exchange at position 170 from a leucine to a valine (L170V). The induction efficiency of tTA-45 in response to varying concentrations of Tc or Dox was determined in transient transfection assays in HeLa cells. The inducer concentration leading to 50% repression of the luciferase activity (IC50) was determined and is described in Table 3 below.
# T1 sequence (P04483 whole entry, added parts left off): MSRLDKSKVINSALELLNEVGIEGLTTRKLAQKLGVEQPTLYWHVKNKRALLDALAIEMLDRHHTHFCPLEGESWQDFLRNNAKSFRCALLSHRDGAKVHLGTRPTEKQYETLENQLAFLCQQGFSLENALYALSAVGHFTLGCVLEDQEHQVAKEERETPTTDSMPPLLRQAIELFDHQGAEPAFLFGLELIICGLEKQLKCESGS
smiles,measurement,setting,value
"C[C@H]1c2cccc(O)c2C(=O)C2=C(O)[C@]3(O)C(=O)C(C(N)=O)=C(O)[C@@H](N(C)C)[C@@H]3[C@@H](O)[C@@H]21 [Dox, doxycycline]",IC50,tTA (Wildtype),1.35 nM
same,IC50,tTA-45 (L170V),11.3 nM
"CN(C)[C@@H]1C(O)=C(C(N)=O)C(=O)[C@@]2(O)C(O)=C3C(=O)c4c(O)cccc4[C@@](C)(O)[C@H]3C[C@@H]12 [Tc, tetracycline]",IC50,tTA (Wildtype),6.75 nM
same,IC50,tTA-45 (L170V),608 nM
